Here are results for 16 compounds from paper PMC3228903 (The FEBS journal, 2011).

Numbering of substitutions follows the chain as printed. Where two headings read alike, the source gives them in different places.

Assay [1] concerns the target T1, MAO B Ile199Ala-Tyr326Ala (Homo sapiens, UniProt P27338, I199A/Y326A).
T1 sequence (P27338 1-520 I199A/Y326A): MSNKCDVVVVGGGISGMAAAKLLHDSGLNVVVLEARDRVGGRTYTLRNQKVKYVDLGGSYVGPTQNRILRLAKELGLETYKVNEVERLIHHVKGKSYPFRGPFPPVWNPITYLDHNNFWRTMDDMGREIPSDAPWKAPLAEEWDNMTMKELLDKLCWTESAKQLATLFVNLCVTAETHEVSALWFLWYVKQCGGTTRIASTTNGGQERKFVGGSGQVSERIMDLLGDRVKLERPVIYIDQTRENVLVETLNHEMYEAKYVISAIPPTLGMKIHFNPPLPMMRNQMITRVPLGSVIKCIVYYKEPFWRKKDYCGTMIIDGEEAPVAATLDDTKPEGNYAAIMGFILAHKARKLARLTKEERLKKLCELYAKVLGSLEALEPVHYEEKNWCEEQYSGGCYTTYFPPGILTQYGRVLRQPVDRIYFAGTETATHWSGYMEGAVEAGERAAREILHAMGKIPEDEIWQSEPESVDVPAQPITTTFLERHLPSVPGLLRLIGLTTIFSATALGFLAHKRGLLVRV
The assay is classed as biochemical.

The target in a further assay is T2, MAO B Ile199Ala (Homo sapiens, UniProt P27338, I199A).
T2 sequence (P27338 1-520 I199A): T1 sequence (P27338 1-520 I199A/Y326A) with A326Y
The assay is classed as biochemical.

In assay [2] the target is T3, WT MAO B (Homo sapiens, UniProt P27338).
T3 sequence (P27338 1-520): T1 sequence (P27338 1-520 I199A/Y326A) with A199I, A326Y
Conditions: pH 7.5; cited from earlier work.

Assay [3] has as its target T3, WT MAO B. Kind of assay: Steady-state substrate oxidation and pH dependence, WT MAO B. In kind it is biochemical. The settings on record: pH 7.5.
In a further assay the target is T4, Ile199Ala MAO B (Homo sapiens, UniProt P27338, I199A).
T4 sequence (P27338 1-520 I199A): T1 sequence (P27338 1-520 I199A/Y326A) with A326Y
Kind of assay: Steady-state substrate oxidation and pH dependence, Ile199Ala MAO B. In kind it is biochemical.

Assay [4] deals with T5, Ile199Ala/Tyr326Ala MAO B (Homo sapiens, UniProt P27338, I199A/Y326A).
T5 sequence (P27338 1-520 I199A/Y326A): T1 sequence (P27338 1-520 I199A/Y326A)
The experiment in a line: Steady-state substrate oxidation and pH dependence, Ile199Ala/Tyr326Ala MAO B. In kind it is biochemical.

In the next assay the target is WT MAO A. The settings on record: cited from earlier work; for Ki: WT MAO A.
Assay [5] addresses T3, WT MAO B. The experiment in a line: Inhibition of WT MAO B, Ki from initial rates of substrate oxidation. The assay is classed as biochemical.
The mark [6] stands for this setting: Ile199Ala-Tyr326Ala double mutant.
The mark [7] stands for this setting: Ile199Ala-Tyr326Ala double mutant, pH 9.3.
Where [8] appears, read: Ki, Ile199Ala single mutant, pH 7.5.

As for `CNC1CCc2ccccc21` (stereo not shown) [methylaminoindane], the “binding / inhibition in words” value in assay [1] is “Weak binding”.
Regarding `NC1CCc2ccccc21` (stereo not shown) [aminoindane], the “binding / inhibition in words” value in assay [1] is listed as “Weak binding”.
For the compound `CN(C)c1ccc2nc3ccc(=[N+](C)C)cc-3sc2c1` [Methylene Blue, methylene blue], the “binding / inhibition in words” value in assay [1] (setting [6]) is given as “affinity higher than that observed with WT MAO B”.
The Ki is the dissociation constant of the complex between target and ligand, obtained from inhibition or displacement. Take `C(C=Cc1ccccc1)=Cc1ccccc1` [DPBD, 1,4-Diphenyl-1,3-butadiene]: the Ki at MAO B Ile199Ala is 1 ± 0.03 µM; in assay [1] (setting [7]), “no inhibition”; at WT MAO B [2], 7 ± 0.2 µM. In addition, the “binding / inhibition in words” value in assay [1] (setting [6]) was “no detectable binding”.
In the case of `NS(=O)(=O)Cc1noc2ccccc12` [zonisamide], the “binding / inhibition in words” value in assay [1] (setting [6]) is listed as “no detectable inhibition”.
As a reminder, the Km is the concentration of substrate that gives half-maximal velocity. As usually defined, the kcat is the number of substrate molecules converted per active site and unit of time at saturation. As to `NCCCCc1ccccc1` [Phenylbutylamine, phenylbutylamine], the Km at WT MAO B [3] is 19 ± 3 µM; on Ile199Ala MAO B (I199A, pH 7.5), 8.9 ± 0.7 µM; in assay [4] (I199A-Y326A, pH 7.5), 55 ± 2 µM. Also, the kcat at WT MAO B [3] came to 1.83 ± 0.083 s⁻¹; on Ile199Ala MAO B (I199A, pH 7.5), 2.25 ± 0.05 s⁻¹; in assay [4] (I199A-Y326A, pH 7.5), 2.37 ± 0.017 s⁻¹.
Take `NCCc1ccccc1` [Phenylethylamine, Phenethylamine]: the “increase in KM relative to WT enzyme” value at Ile199Ala MAO B (single mutant, pH 7.5) was determined as 4 fold. Further, the “KM value higher than WT enzyme” value in assay [4] (double mutant, pH 7.5) worked out at 75 fold.
For the compound `O=C1Nc2ccccc2C1=O` [Isatin], at WT MAO A, the inhibition constant Ki was 15 µM.
Regarding `Cc1ccc2c(c1)c1c3n2CCNC3CCC1` (stereo not shown) [Pirlindole, pirlindole], the Ki result on WT MAO B [5] (WT MAO B, pH 7.5) was “No inhibition”; on WT MAO B [5] (WT MAO B, pH 7.5, listed as pirlindole) it was “neither MAO B nor the Ile199Ala single mutant are inhibited”; at MAO B Ile199Ala (Ile199Ala single mutant, pH 7.5), “No inhibition”; on MAO B Ile199Ala (Ile199Ala single mutant, pH 7.5, listed as pirlindole), “neither MAO B nor the Ile199Ala single mutant are inhibited”; in assay [1], 4.1 ± 0.2 µM; at WT MAO A, 0.92 ± 0.04 µM.
As for `NCc1ccc(C(F)(F)F)cc1` [p-CF3-benzylamine], the entries for the “V/K extrapolated for fully deprotonated free enzyme, of WT activity” value (on Ile199Ala MAO B (single mutant); in assay [4] (double mutant)) were 33% and 24%, respectively.
With `CC(C)=CCC/C(C)=C/CC/C(C)=C/CO` [Farnesol, trans,trans-farnesol], the Ki came to 2.7 ± 0.4 µM at MAO B Ile199Ala (setting [8]) and 18 ± 3 µM in assay [1]. Further, the “binding / inhibition in words” value in assay [1] (setting [6]) is “weaker binding”. Further, in the assay with WT MAO A (previous work), the “binding to human MAO A in words” value is listed as “do not bind”.
With `NCc1ccccc1` [Benzylamine, benzylamine], the results for the “V/K extrapolated for fully deprotonated free enzyme, of WT activity” value (at Ile199Ala MAO B (single mutant); in assay [4] (double mutant)) were 42% and ~ 5%, respectively. Moreover, in assay [4] (I199A-Y326A, pH 7.5), the KM entry is “too high to measure”. The 2nd order rate in assay [4] (I199A-Y326A, pH 7.5, no saturation) is 2nd order rate =: 0.0106 ±0.0002 μM^−1min^−1.
Turning to `C(=CCc1ccccc1)Cc1ccccc1` [DPB, 1,4-Diphenyl-2-butene], the Ki on MAO B Ile199Ala (setting [8]) was 8.1 ± 1.6 µM; in assay [1] (setting [7]) it was “no inhibition”; on WT MAO B [2], 34.5 ± 1.4 µM. Further, the “binding / inhibition in words” value in assay [1] (setting [6]) was “no detectable binding”.
`N[C@@H]1C[C@H]1c1ccccc1` (racemic) [Tranylcypromine]: at WT MAO A, the Ki is 19 µM.
For `Cc1nccc2c1[nH]c1ccccc12` [Harmane, harmane], the Ki at WT MAO B [5] was 140 ± 47 µM; at MAO B Ile199Ala, 550 ± 50 µM; in assay [1] it was 165 ± 17 µM; at WT MAO A it was 0.58 ± 0.02 µM.
In the case of `C[C@H](NCc1ccc(OCc2cccc(F)c2)cc1)C(N)=O` [Safinamide], the “weaker affinity than WT MAO B” value in assay [1] (double mutant relative to WT MAO B) was ~ 10 fold.
